Experimental findings from patent US8871753B2, “Macrocyclic compounds and their use as kinase inhibitors” (Incyte Corporation, priority 2008, dated 2014) are described below.

Where a name gives a salt, the structure may show the parent alone. Where only a bound is given, the exact number is not on record here.

What all share (type): biochemical
The target in test [1] is T1, human JAK1 (a.a. 837-1142) (Homo sapiens, UniProt P23458).
T1 construct: human JAK1 (a.a. 837-1142); His tag (N); made in house; host or cells: insect cells (baculovirus)
Kind of test: In vitro JAK kinase assay (HTRF, phosphorylation of a biotinylated peptide), JAK1. The note with it: Table B1; read-out: JAK1 IC50. A digest of the protocol:
(§1)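 Kinase reactions ran at room temperature for 1 h with ATP matched per isoform (JAK1 90 μM, JAK2 30 μM, JAK3 3 μM). After an EDTA stop, the phosphorylated biotin-peptide was read by HTRF using Eu-Py20 and SA-APC after 40 min binding.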
(TR-FRET usually uses a lanthanide donor and a delayed reading to cut background.)

Test [2] has as its target T2, human JAK2 (a.a. 828-1132) (Homo sapiens, UniProt O60674).
T2 construct: JAK2 (a.a. 828-1132); His tag (N); made in house; host or cells: insect cells (baculovirus)
Kind of test: In vitro JAK kinase assay (HTRF, phosphorylation of a biotinylated peptide), JAK2. The following applies: Table B1. An outline of the steps:
as §1

Test [3] deals with T3, human JAK3 (a.a. 781-1124) (Homo sapiens, UniProt P52333).
T3 construct: JAK3 (a.a. 781-1124); His tag (N); made in house; host or cells: insect cells (baculovirus)
Kind of test: In vitro JAK kinase assay (HTRF, phosphorylation of a biotinylated peptide), JAK3. The following applies: Table B1. A digest of the protocol:
as §1

For test [4], the target named is TYK2 (Homo sapiens, UniProt P29597). Kind of test: TYK2 kinase inhibition (Table A1). The following applies: Table B1.
For test [5], the target named is T4, Recombinant Human Anaplastic Lymphoma Kinase (Homo sapiens, UniProt Q9UM73).
T4 construct: purchased Invitrogen, Carlsbad, Calif
Kind of test: ALK HTRF kinase assay. The note with it: compound at a concentration of 500 nM or 1 mM (not specified); cells shown as percentage. A digest of the protocol:
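Recombinant human ALK with biotinylated peptide substrate; phosphorylation detected by HTRF using Eu-labelled anti-phosphotyrosine antibody and streptavidin-allophycocyanin. IC50 from a sigmoidal fit with Hill slope.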

T3 sequence (P52333 781-1124): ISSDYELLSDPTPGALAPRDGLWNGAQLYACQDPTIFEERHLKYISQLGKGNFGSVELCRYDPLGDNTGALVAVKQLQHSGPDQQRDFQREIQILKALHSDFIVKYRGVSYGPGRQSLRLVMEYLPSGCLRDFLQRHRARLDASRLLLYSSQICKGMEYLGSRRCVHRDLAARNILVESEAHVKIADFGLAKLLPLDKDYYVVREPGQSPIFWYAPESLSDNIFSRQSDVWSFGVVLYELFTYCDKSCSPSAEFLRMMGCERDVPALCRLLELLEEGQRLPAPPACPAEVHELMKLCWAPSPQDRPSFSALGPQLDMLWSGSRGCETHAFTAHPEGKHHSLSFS
T4 sequence (Q9UM73 19-1620): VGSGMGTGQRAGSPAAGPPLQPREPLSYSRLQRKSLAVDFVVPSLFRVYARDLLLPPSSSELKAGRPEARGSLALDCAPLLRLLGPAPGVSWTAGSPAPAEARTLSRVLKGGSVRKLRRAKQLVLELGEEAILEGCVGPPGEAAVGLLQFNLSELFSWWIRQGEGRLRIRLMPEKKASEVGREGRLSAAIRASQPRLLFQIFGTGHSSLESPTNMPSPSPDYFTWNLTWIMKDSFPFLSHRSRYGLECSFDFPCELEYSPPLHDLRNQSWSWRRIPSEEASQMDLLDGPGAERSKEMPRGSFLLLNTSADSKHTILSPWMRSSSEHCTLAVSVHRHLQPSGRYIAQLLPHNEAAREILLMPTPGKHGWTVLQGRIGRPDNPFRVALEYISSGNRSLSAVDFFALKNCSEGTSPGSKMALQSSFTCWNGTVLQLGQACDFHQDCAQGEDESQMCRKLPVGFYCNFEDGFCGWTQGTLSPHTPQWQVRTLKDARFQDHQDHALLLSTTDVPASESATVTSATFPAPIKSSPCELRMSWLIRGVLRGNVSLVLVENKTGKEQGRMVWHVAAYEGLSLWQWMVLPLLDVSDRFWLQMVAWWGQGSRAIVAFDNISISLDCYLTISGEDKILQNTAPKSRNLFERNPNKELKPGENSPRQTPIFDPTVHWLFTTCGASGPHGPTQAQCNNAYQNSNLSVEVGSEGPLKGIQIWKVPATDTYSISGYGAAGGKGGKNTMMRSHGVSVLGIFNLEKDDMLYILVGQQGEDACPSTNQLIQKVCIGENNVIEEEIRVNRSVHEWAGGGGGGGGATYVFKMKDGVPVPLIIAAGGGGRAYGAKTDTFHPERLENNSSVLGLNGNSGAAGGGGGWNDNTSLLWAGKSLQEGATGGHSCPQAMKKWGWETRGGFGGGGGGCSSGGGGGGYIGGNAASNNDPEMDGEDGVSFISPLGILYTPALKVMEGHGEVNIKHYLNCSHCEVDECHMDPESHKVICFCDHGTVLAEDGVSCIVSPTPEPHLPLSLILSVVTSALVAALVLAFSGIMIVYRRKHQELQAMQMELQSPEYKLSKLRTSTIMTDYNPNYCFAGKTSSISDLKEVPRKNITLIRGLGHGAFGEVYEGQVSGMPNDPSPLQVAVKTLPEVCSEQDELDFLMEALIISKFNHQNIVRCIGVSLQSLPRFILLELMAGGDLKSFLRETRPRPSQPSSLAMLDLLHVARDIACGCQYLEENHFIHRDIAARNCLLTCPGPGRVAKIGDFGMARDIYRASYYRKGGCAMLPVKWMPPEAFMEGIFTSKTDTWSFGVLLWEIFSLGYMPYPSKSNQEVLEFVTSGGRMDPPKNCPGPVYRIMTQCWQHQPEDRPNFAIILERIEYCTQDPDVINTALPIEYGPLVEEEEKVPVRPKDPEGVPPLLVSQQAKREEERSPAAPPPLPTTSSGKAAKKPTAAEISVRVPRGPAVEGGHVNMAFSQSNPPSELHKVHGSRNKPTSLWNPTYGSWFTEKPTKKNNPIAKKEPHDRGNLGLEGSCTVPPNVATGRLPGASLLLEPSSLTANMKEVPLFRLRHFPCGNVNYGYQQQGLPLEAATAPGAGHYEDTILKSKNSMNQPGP
T2 sequence (O60674 828-1132): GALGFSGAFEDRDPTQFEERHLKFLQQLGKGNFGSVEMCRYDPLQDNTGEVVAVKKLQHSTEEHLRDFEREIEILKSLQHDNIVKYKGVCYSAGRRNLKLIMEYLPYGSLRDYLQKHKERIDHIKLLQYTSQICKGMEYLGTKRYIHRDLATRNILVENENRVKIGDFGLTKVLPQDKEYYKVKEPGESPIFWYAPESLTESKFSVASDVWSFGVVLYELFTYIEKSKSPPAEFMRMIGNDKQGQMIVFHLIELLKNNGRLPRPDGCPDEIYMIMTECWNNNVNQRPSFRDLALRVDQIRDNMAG
T1 sequence (P23458 849-1154): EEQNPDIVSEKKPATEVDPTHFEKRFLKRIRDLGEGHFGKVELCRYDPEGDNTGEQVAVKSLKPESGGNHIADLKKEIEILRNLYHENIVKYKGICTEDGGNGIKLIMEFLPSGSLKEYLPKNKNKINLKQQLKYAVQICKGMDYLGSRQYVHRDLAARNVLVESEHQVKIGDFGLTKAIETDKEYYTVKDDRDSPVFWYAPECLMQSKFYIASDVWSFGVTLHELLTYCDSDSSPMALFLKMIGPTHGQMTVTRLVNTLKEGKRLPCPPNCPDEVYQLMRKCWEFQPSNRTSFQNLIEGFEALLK
Sequence of TYK2 (P29597 whole entry): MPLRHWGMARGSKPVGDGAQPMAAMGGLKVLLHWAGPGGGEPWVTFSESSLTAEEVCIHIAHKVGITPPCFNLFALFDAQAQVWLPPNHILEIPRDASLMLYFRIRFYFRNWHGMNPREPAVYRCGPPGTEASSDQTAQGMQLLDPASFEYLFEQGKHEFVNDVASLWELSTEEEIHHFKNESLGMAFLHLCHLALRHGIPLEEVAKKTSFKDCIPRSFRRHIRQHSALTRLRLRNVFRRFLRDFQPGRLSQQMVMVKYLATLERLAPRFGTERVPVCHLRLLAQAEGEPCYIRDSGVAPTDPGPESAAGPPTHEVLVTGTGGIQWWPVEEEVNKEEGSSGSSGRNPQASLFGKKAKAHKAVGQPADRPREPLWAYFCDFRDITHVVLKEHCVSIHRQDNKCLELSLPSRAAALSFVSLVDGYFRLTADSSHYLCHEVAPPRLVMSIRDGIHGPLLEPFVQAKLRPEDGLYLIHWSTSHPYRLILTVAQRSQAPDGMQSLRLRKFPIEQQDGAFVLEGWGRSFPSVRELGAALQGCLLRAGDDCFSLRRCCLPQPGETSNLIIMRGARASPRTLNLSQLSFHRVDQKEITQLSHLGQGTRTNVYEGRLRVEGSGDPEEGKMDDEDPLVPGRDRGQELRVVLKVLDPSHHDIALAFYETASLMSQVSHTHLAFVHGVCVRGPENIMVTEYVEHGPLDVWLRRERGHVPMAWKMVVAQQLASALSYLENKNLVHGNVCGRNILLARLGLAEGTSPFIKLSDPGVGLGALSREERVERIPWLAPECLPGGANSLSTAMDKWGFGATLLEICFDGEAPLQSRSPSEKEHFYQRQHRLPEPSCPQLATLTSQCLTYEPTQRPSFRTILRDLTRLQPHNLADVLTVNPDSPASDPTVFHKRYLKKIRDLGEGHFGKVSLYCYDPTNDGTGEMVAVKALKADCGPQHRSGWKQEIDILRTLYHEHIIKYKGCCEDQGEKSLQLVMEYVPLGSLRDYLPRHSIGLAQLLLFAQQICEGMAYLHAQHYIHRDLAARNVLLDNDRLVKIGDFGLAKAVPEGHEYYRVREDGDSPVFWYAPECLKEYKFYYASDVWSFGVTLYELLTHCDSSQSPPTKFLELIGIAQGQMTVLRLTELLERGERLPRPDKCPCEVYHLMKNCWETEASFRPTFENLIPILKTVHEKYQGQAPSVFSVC

For `CCOC(=O)c1coc(Nc2ccc3cc2CCc2cccc(c2)Nc2ncc(Cl)c(n2)N3)n1` [Example B278, Ethyl 2-{[6-chloro-2,4,8,22-tetraazatetracyclo[14.3.1.1(3,7).1(9,13)]docosa-1(20),3(22),4,6,9(21),10,12,16,18-nonaen-12-yl]amino}-1,3-oxazole-4-carboxylate bis(trifluoroacetate)], the IC50 (commonly the concentration that inhibits the measured activity by half) in test [1] was 47 nM; in test [2], 126 nM; in test [3] it was 1850 nM; in test [4] it was 222 nM. Also, the “ALK % of inhibition at a concentration of 500 nM or 1 mM” value (“ALK % of inhibition” for short) in test [5] was determined as 10%.

For the molecule `Clc1cnc2nc1Nc1ccc(Nc3nccc(-c4ccccc4)n3)c(c1)CCc1cccc(c1)N2` [Example B279, 6-Chloro-N-(4-phenylpyrimidin-2-yl)-2,4,8,22-tetraazatetracyclo[14.3.1.1(3,7).1(9,13)]docosa-1(20),3(22),4,6,9(21),10,12,16,18-nonaen-12-amine tris(trifluoroacetate)], the IC50 is 86 nM in test [1], 158 nM in test [2], above 10000 nM in test [3] and 549 nM in test [4]. Besides, in test [5], the “ALK % of inhibition” value is 0.76%.

Consider `Cc1cc(C(=O)Nc2ccc3cc2CCc2cccc(c2)Nc2ncc(Cl)c(n2)N3)nc(Cl)n1` [Example B280, 2-Chloro-N-[6-chloro-2,4,8,22-tetraazatetracyclo[14.3.1.1(3,7).1(9,13)]docosa-1(20),3(22),4,6,9(21),10,12,16,18-nonaen-12-yl]-6-methylpyrimidine-4-carboxamide bis(trifluoroacetate)], for which the IC50 is 276 nM in test [1], 446 nM in test [2], above 10000 nM in test [3] and 1790 nM in test [4]. Also, in test [5], the “ALK % of inhibition” value came to 4.6%.

Regarding `NC1CCN(c2ccnc(Nc3ccc4cc3CCc3cccc(c3)Nc3ncc(Cl)c(n3)N4)n2)CC1` [Example B281, N-[4-(4-Aminopiperidin-1-yl)pyrimidin-2-yl]-6-chloro-2,4,8,22-tetraazatetracyclo[14.3.1.1(3,7).1(9,13)]docosa-1(20),3(22),4,6,9(21),10,12,16,18-nonaen-12-amine tris(trifluoroacetate)], the IC50 is 15 nM in test [1], 150 nM in test [2], 1400 nM in test [3] and 2300 nM in test [4]. Besides, the “ALK % of inhibition” value in test [5] was 24%.

For `CN(C(=O)Nc1ccc2cc1CCc1cccc(c1)Nc1ncc(Cl)c(n1)N2)[C@H]1CCN(Cc2ccccc2)C1` [Example B283, N-[(3S)-1-Benzylpyrrolidin-3-yl]-N′-[6-chloro-2,4,8,22-tetraazatetracyclo[14.3.1.1(3,7).1(9,13)]docosa-1(20),3(22),4,6,9(21),10,12,16,18-nonaen-12-yl]-N-methylurea], the IC50 in test [1] was 141 nM; in test [2] it was 165 nM; in test [3], above 1000 nM; in test [4], 550 nM. Besides, the “ALK % of inhibition” value in test [5] is given as 30%.

Consider `CN(C(=O)Nc1ccc2cc1CCc1cncc(c1)Nc1ncc(Cl)c(n1)N2)[C@H]1CCN(Cc2ccccc2)C1` [Example B284, N-[(3S)-1-Benzylpyrrolidin-3-yl]-N′-[6-chloro-2,4,8,18,22-pentaazatetracyclo[14.3.1.1(3,7).1(9,13)]docosa-1(20),3(22),4,6,9(21),10,12,16,18-nonaen-12-yl]-N-methylurea], for which the IC50 was 72 nM in test [1], 368 nM in test [2], above 1000 nM in test [3] and 409 nM in test [4]. In test [5], the “ALK % of inhibition” value turned out to be 25%.

For `O=C(Nc1ccc2cc1CCc1cncc(c1)Nc1ncc(Cl)c(n1)N2)N1CCNCC1` [Example B285, N-[6-Chloro-2,4,8,18,22-pentaazatetracyclo[14.3.1.1(3,7).1(9,13)]docosa-1(20),3(22),4,6,9(21),10,12,16,18-nonaen-12-yl]piperazine-1-carboxamidetrihydrochloride], the IC50 in test [1] was 100 nM; in test [2], above 200 nM; in test [3] it was above 200 nM; in test [4], above 200 nM. The “ALK % of inhibition” value in test [5] was 38%.

With `O=C(Nc1ccc2cc1CCc1cncc(c1)Nc1ncc(Cl)c(n1)N2)N1CCN(C(=O)c2ccccc2)CC1` [Example B286, 4-Benzoyl-N-[6-chloro-2,4,8,18,22-pentaazatetracyclo[14.3.1.1(3,7).1(9,13)]docosa-1(20),3(22),4,6,9(21),10,12,16,18-nonaen-12-yl]piperazine-1-carboxamide bis(trifluoroacetate)], the IC50 in test [1] is 43 nM; in test [2] it was above 200 nM; in test [3], above 200 nM; in test [4], above 200 nM. The “ALK % of inhibition” value in test [5] is 51%.

On to `O=C(Nc1ccc2cc1CCc1cncc(c1)Nc1ncc(Cl)c(n1)N2)N1CCN(Cc2ccccc2)CC1` [Example B287, 4-Benzyl-N-[6-chloro-2,4,8,18,22-pentaazatetracyclo[14.3.1.1(3,7).1(9,13)]docosa-1(20),3(22),4,6,9(21),10,12,16,18-nonaen-12-yl]piperazine-1-carboxamidetris(trifluoroacetate)], for which the IC50 in test [1] was 15 nM; in test [2], 90 nM; in test [3], above 200 nM; in test [4], above 200 nM. The “ALK % of inhibition” value in test [5] worked out at 46%.

With `CN(C(=O)Nc1ccc2cc1CCc1cncc(c1)Nc1ncc(Cl)c(n1)N2)[C@H]1CCNC1` [Example B288, N′-[6-Chloro-2,4,8,18,22-pentaazatetracyclo[14.3.1.1(3,7).1(9,13)]docosa-1(20),3(22),4,6,9(21),10,12,16,18-nonaen-12-yl]-N-methyl-N-[(3S)-pyrrolidin-3-yl]urea tris(trifluoroacetate)], the IC50 in test [1] is 42 nM; in test [2] it was 180 nM; in test [3], above 200 nM; in test [4], above 200 nM. The “ALK % of inhibition” value in test [5] worked out at 18%.

Take `O=C(Nc1ccc2cc1CCc1cncc(c1)Nc1ncc(Cl)c(n1)N2)N1CCN(c2ccccn2)CC1` [Example B289, N-[6-Chloro-2,4,8,18,22-pentaazatetracyclo[14.3.1.1(3,7).1(9,13)]docosa-1(20),3(22),4,6,9(21),10,12,16,18-nonaen-12-yl]-4-pyridin-2-ylpiperazine-1-carboxamide tris(trifluoroacetate)]: the IC50 was 17 nM in test [1], 134 nM in test [2], above 200 nM in test [3] and 85 nM in test [4]. Also, in test [5], the “ALK % of inhibition” value worked out at 65%.

For the molecule `O=C(Nc1ccc2cc1CCc1cccc(c1)Nc1ncc(Cl)c(n1)N2)N1CCN(c2ccccn2)CC1` [Example B290, N-[6-Chloro-2,4,8,22-tetraazatetracyclo[14.3.1.1(3,7).1(9,13)]docosa-1(20),3(22),4,6,9(21),10,12,16,18-nonaen-12-yl]-4-pyridin-2-ylpiperazine-1-carboxamide bis(trifluoroacetate)], the IC50 in test [1] is 82 nM; in test [2], 89 nM; in test [3], above 200 nM; in test [4] it was 59 nM. Besides, in test [5], the “ALK % of inhibition” value was determined as 50%.
